Species on record: Rattus norvegicus
Test: DrugMatrix - Regimen: Daily Repeat
Type: toxicity, organism-based, Sprague-Dawley
Design: regimen Daily Repeat, gender Male, age 6-8 weeks
Conditions: in vivo, iv, […], vehicle 100 % SALINE; for ALANINE AMINOTRANSFERASE / ALBUMIN / ALKALINE PHOSPHATASE / ASPARTATE AMINOTRANSFERASE / BLOOD UREA NITROGEN / CARBON DIOXIDE / CHLORIDE / CHOLESTEROL / CREATINE PHOSPHOKINASE / CREATININE / GLUCOSE / LACTATE DEHYDROGENASE / LIPASE / PHOSPHORUS / POTASSIUM / SODIUM / TOTAL BILIRUBIN / TOTAL PROTEIN / URIC ACID: tissue Plasma; for ABSOLUTE BASOPHIL / ABSOLUTE EOSINOPHIL / ABSOLUTE LYMPHOCYTE / ABSOLUTE MONOCYTE / ABSOLUTE SEGMENTED NEUTROPHIL / BASOPHIL / EOSINOPHIL / ERYTHROCYTE COUNT / HEMATOCRIT / HEMOGLOBIN / LEUKOCYTE COUNT / LYMPHOCYTE / MEAN CORPUSCULAR HEMOGLOBIN / MEAN CORPUSCULAR HEMOGLOBIN CONCENTRATION / MEAN CORPUSCULAR VOLUME / MONOCYTE / NEUTROPHIL / NUCLEATED RED BLOOD CELLS / PLATELET COUNT: tissue Blood
[1] = 72 h, dose 0.24 mg/Kg, dose level Low, time 3 day
[2] = 72 h, dose 2.5 mg/Kg, dose level High, time 3 day
[3] = 120 h, dose 0.24 mg/Kg, dose level Low, time 5 day
[4] = 120 h, dose 2.5 mg/Kg, dose level High, time 5 day

## CC[C@@]1(O)C(=O)OCc2c1cc1n(c2=O)Cc2cc3ccccc3nc2-1 [CAMPTOTHECIN]
[1]
  ALANINE AMINOTRANSFERASE: 60 u/L
  ALBUMIN: 4.3 G/DL
  ALKALINE PHOSPHATASE: 408 u/L
  ASPARTATE AMINOTRANSFERASE: 104.67 u/L
  BLOOD UREA NITROGEN: 12.67 mg/dL
  CARBON DIOXIDE: 33.33 mmol/L
  CHLORIDE: 101.33 MEQ/L
  CHOLESTEROL: 75 mg/dL
  CREATINE PHOSPHOKINASE: 727.67 u/L
  CREATININE: 0.15 mg/dL
  GLUCOSE: 138.33 mg/dL
  LACTATE DEHYDROGENASE: 388 u/L
  LIPASE: 11 u/L
  PHOSPHORUS: 11.93 mg/dL
  POTASSIUM: 6.3 MEQ/L
  SODIUM: 145.33 MEQ/L
  TOTAL BILIRUBIN: 0.17 mg/dL
  TOTAL PROTEIN: 5.93 G/DL
  URIC ACID: 1.33 mg/dL
[2]
  ALANINE AMINOTRANSFERASE: 37.33 u/L
  ALBUMIN: 4.2 G/DL
  ALKALINE PHOSPHATASE: 430.33 u/L
  ASPARTATE AMINOTRANSFERASE: 79.33 u/L
  BLOOD UREA NITROGEN: 13 mg/dL
  CARBON DIOXIDE: 33 mmol/L
  CHLORIDE: 101.33 MEQ/L
  CHOLESTEROL: 73.67 mg/dL
  CREATINE PHOSPHOKINASE: 318.33 u/L
  CREATININE: 0.16 mg/dL
  GLUCOSE: 153.33 mg/dL
  LACTATE DEHYDROGENASE: 136.33 u/L
  LIPASE: 10.33 u/L
  PHOSPHORUS: 10.83 mg/dL
  POTASSIUM: 5.76 MEQ/L
  SODIUM: 142.73 MEQ/L
  TOTAL BILIRUBIN: 0.17 mg/dL
  TOTAL PROTEIN: 6.1 G/DL
  URIC ACID: 1.63 mg/dL
[3]
  ABSOLUTE BASOPHIL: 0 CELLS/uL
  ABSOLUTE EOSINOPHIL: 45.33 CELLS/uL
  ABSOLUTE LYMPHOCYTE: 11856.67 CELLS/uL
  ABSOLUTE MONOCYTE: 131.67 CELLS/uL
  ABSOLUTE SEGMENTED NEUTROPHIL: 1233 CELLS/uL
  BASOPHIL: 0%
  EOSINOPHIL: 0.33%
  ERYTHROCYTE COUNT: 5.71 x10E6/uL
  HEMATOCRIT: 35.9%
  HEMOGLOBIN: 14.03 G/DL
  LEUKOCYTE COUNT: 13.27 x10E3/uL
  LYMPHOCYTE: 89.33%
  MEAN CORPUSCULAR HEMOGLOBIN: 24.57 pg
  MEAN CORPUSCULAR HEMOGLOBIN CONCENTRATION: 39.07 G/DL
  MEAN CORPUSCULAR VOLUME: 62.87 fL
  MONOCYTE: 1%
  NEUTROPHIL: 9.33%
  NUCLEATED RED BLOOD CELLS: 0 /100WBC
  PLATELET COUNT: 1215 x10E3/uL
  ALANINE AMINOTRANSFERASE: 43.33 u/L
  ALBUMIN: 4.03 G/DL
  ALKALINE PHOSPHATASE: 352 u/L
  ASPARTATE AMINOTRANSFERASE: 70 u/L
  BLOOD UREA NITROGEN: 14.67 mg/dL
  CARBON DIOXIDE: 29.33 mmol/L
  CHLORIDE: 102 MEQ/L
  CHOLESTEROL: 64.33 mg/dL
  CREATINE PHOSPHOKINASE: 241.67 u/L
  CREATININE: 0.18 mg/dL
  GLUCOSE: 201.67 mg/dL
  LACTATE DEHYDROGENASE: 147.33 u/L
  LIPASE: 10.33 u/L
  PHOSPHORUS: 11.03 mg/dL
  POTASSIUM: 5.31 MEQ/L
  SODIUM: 141.3 MEQ/L
  TOTAL BILIRUBIN: 0.2 mg/dL
  TOTAL PROTEIN: 5.93 G/DL
  URIC ACID: 1.33 mg/dL
[4]
  ABSOLUTE BASOPHIL: 0 CELLS/uL
  ABSOLUTE EOSINOPHIL: 0 CELLS/uL
  ABSOLUTE LYMPHOCYTE: 7405.33 CELLS/uL
  ABSOLUTE MONOCYTE: 102.67 CELLS/uL
  ABSOLUTE SEGMENTED NEUTROPHIL: 225.33 CELLS/uL
  BASOPHIL: 0%
  EOSINOPHIL: 0%
  ERYTHROCYTE COUNT: 5.35 x10E6/uL
  HEMATOCRIT: 31.67%
  HEMOGLOBIN: 12.13 G/DL
  LEUKOCYTE COUNT: 7.73 x10E3/uL
  LYMPHOCYTE: 95.67%
  MEAN CORPUSCULAR HEMOGLOBIN: 22.77 pg
  MEAN CORPUSCULAR HEMOGLOBIN CONCENTRATION: 38.33 G/DL
  MEAN CORPUSCULAR VOLUME: 59.3 fL
  MONOCYTE: 1.33%
  NEUTROPHIL: 3%
  NUCLEATED RED BLOOD CELLS: 0 /100WBC
  PLATELET COUNT: 1318.33 x10E3/uL
  ALANINE AMINOTRANSFERASE: 42.67 u/L
  ALBUMIN: 4.03 G/DL
  ALKALINE PHOSPHATASE: 247 u/L
  ASPARTATE AMINOTRANSFERASE: 101 u/L
  BLOOD UREA NITROGEN: 17 mg/dL
  CARBON DIOXIDE: 22.33 mmol/L
  CHLORIDE: 103.33 MEQ/L
  CHOLESTEROL: 56 mg/dL
  CREATINE PHOSPHOKINASE: 674.67 u/L
  CREATININE: 0.2 mg/dL
  GLUCOSE: 184 mg/dL
  LACTATE DEHYDROGENASE: 581 u/L
  LIPASE: 10.33 u/L
  PHOSPHORUS: 12.4 mg/dL
  POTASSIUM: 6.08 MEQ/L
  SODIUM: 142.1 MEQ/L
  TOTAL BILIRUBIN: 0.13 mg/dL
  TOTAL PROTEIN: 6.03 G/DL
  URIC ACID: 1.8 mg/dL
